Columns and labels:
Assay type in all cases: in vivo
[1] = test system: Monochoria vaginalis; assay: Herbicidal effect test by treatment of rice paddy soil (Test Example 1); details: 120 g/10 a, treated immediately after seeding, 14 days after treatment
Procedure: (§1) Wagner pots with an area of 1/10000 ares were filled with a paddy soil, and a compound fertilizer (N:P:K=17:17:17) was mixed after water was added, followed by soil puddling. Then, Echinochloa crus-galli, broad leaf weeds (Lindernia pyxidaria and Monochoria vaginalis) and Scirpus juncoides, 30 seeds each, were sown in a depth of 0 to 1 cm. Water was poured immediately after seeding, and the water depth was kept at about 3 cm. A subsequent management was conducted in a glass greenhouse. Immediately after that, emulsions prepared using the compounds in Table 3 below according to Formulation Example 5 were diluted with water, and a certain amount of the water-diluted agent solutions were dropped. A converted amount of the applied active ingredient corresponded to 120 g per 10 ares.
(§2) This test was conducted in a double system per one agent solution concentration area, and the herbicidal rates (%) were determined by the following equation (Math. 1) 14 days after the treatment with the agents.
(§3) Herbicidal Rate (%)={1−(Average Dry Weight (g) of Plant of Treated Area)/(Average Dry Weight (g) of Plant of Untreated Area)}×100 [Math. 1]

[2] = test system: Scirpus juncoides; assay: as above; details: 120 g/10 a, treated immediately after seeding, 14 days after treatment
Procedure: as §1, §2, §3

[3] = test system: Echinochloa crus-galli; assay: as above; details: 120 g/10 a, treated immediately after seeding, 14 days after treatment
Procedure: as §1, §2, §3

[4] = test system: Lindernia pyxidaria; assay: as above; details: 120 g/10 a, treated immediately after seeding, 14 days after treatment
Procedure: as §1, §2, §3

[5] = test system: Amaranthus viridis; assay: Herbicidal effect test by treatment of stem and leaf in dry field farming (Test Example 4); details: 120 g/10 a, stem and leaf treatment seven days after seeding, 14 days after treatment
From the text: (§4) Herbicidal Rate (%)={1−(Average Dry Weight (g) of Plant of Treated Area)/(Average Dry Weight (g) of Plant of Untreated Area)}×100 [Math. 1] Pots with a size of 36 cm^2 were filled with a dry field farming soil (alluvium). The soil of the top layer of 1 cm and seeds of weeds, namely southern crabgrass, Echinochloa crus-galli, Chenopodium album and Amaranthus viridis, 20 seeds each, were evenly mixed, and the top layer was gently pressed. Emulsions prepared using the compounds in Table 6 below according to Formulation Example 5 were diluted with water seven days after seeding, and the water-diluted agent solutions were sprayed to the soil surfaces at a ratio of 100 liters per 10 ares. A converted amount of the applied active ingredient corresponded to 120 g per 10 ares. The herbicidal effects were evaluated by the same standard as that in Test Example 1, 14 days after the treatment with the agents. In this regard, the compound numbers in Table 6 are the same as those in Table 1 and Table 2 above.

[6] = test system: southern crabgrass; assay: as above; details: 120 g/10 a, stem and leaf treatment seven days after seeding, 14 days after treatment
From the text: as §4

[7] = test system: Echinochloa crus-galli; assay: as above; details: 120 g/10 a, stem and leaf treatment seven days after seeding, 14 days after treatment
From the text: as §4

[8] = test system: Chenopodium album; assay: as above; details: 120 g/10 a, stem and leaf treatment seven days after seeding, 14 days after treatment
From the text: as §4

[9] = test system: Amaranthus viridis; assay: Herbicidal effect test by treatment of dry field farming soil (Test Example 3); details: 120 g/10 a, sprayed one day after seeding, 14 days after treatment
From the text: as §4, with “Table 5” for “Table 6”, “water one day” for “water seven days”

[10] = test system: southern crabgrass; assay: as above; details: 120 g/10 a, sprayed one day after seeding, 14 days after treatment
From the text: as §4, with “Table 5” for “Table 6”, “water one day” for “water seven days”

[11] = test system: Echinochloa crus-galli; assay: as above; details: 120 g/10 a, sprayed one day after seeding, 14 days after treatment
From the text: as §4, with “Table 5” for “Table 6”, “water one day” for “water seven days”

[12] = test system: Chenopodium album; assay: as above; details: 120 g/10 a, sprayed one day after seeding, 14 days after treatment
From the text: as §4, with “Table 5” for “Table 6”, “water one day” for “water seven days”

[13] = test system: Monochoria vaginalis; assay: Herbicidal effect test by treatment during growing period in paddy rice cultivation (Test Example 2); details: 120 g/10 a, treated seven days after seeding, 14 days after treatment
From the text: as §3
as §1, with “after addition of water,” for “after water was added,”, “greenhouse. Emulsions” for “greenhouse. Immediately after that, emulsions”, “Table 4” for “Table 3”, “with water seven days after seeding,” for “with water,”, “ares. The test was conducted in a double system per one agent solution concentration area, and the herbicidal rates (%) were determined by the equation (Math. 1) 14 days after the treatment with the agents. In this regard, the compound numbers in Table 4 are the same as those in Table 1 and Table 2 above.” for “ares.”

[14] = test system: Scirpus juncoides; assay: as above; details: 120 g/10 a, treated seven days after seeding, 14 days after treatment
From the text: as §3
as §1, with “after addition of water,” for “after water was added,”, “greenhouse. Emulsions” for “greenhouse. Immediately after that, emulsions”, “Table 4” for “Table 3”, “with water seven days after seeding,” for “with water,”, “ares. The test was conducted in a double system per one agent solution concentration area, and the herbicidal rates (%) were determined by the equation (Math. 1) 14 days after the treatment with the agents. In this regard, the compound numbers in Table 4 are the same as those in Table 1 and Table 2 above.” for “ares.”

[15] = test system: Echinochloa crus-galli; assay: as above; details: 120 g/10 a, treated seven days after seeding, 14 days after treatment
From the text: as §3
as §1, with “after addition of water,” for “after water was added,”, “greenhouse. Emulsions” for “greenhouse. Immediately after that, emulsions”, “Table 4” for “Table 3”, “with water seven days after seeding,” for “with water,”, “ares. The test was conducted in a double system per one agent solution concentration area, and the herbicidal rates (%) were determined by the equation (Math. 1) 14 days after the treatment with the agents. In this regard, the compound numbers in Table 4 are the same as those in Table 1 and Table 2 above.” for “ares.”

[16] = test system: Lindernia pyxidaria; assay: as above; details: 120 g/10 a, treated seven days after seeding, 14 days after treatment
From the text: as §3
as §1, with “after addition of water,” for “after water was added,”, “greenhouse. Emulsions” for “greenhouse. Immediately after that, emulsions”, “Table 4” for “Table 3”, “with water seven days after seeding,” for “with water,”, “ares. The test was conducted in a double system per one agent solution concentration area, and the herbicidal rates (%) were determined by the equation (Math. 1) 14 days after the treatment with the agents. In this regard, the compound numbers in Table 4 are the same as those in Table 1 and Table 2 above.” for “ares.”

Row | Compound | Herbicidal rate, Monochoria vaginalis [1] | Herbicidal rate, Scirpus juncoides [2] | Herbicidal rate, Echinochloa crus-galli [3] | Herbicidal rate, Lindernia pyxidaria [4] | Herbicidal rate, Amaranthus viridis [5] | Herbicidal rate, southern crabgrass [6] | Herbicidal rate, Echinochloa crus-galli [7] | Herbicidal rate, Chenopodium album [8] | Herbicidal rate, Amaranthus viridis [9] | Herbicidal rate, southern crabgrass [10] | Herbicidal rate, Echinochloa crus-galli [11] | Herbicidal rate, Chenopodium album [12] | Herbicidal rate, Monochoria vaginalis [13] | Herbicidal rate, Scirpus juncoides [14] | Herbicidal rate, Echinochloa crus-galli [15] | Herbicidal rate, Lindernia pyxidaria [16]
1 | COC1CCCC1n1oc(=O)c(Cc2ccccc2N(C(C)=O)S(=O)(=O)C(F)(F)F)c1C (centres unmarked) [Compound 107, N-[2-[[(2-methoxycyclopentyl)-3-methyl-5-oxoisoxazol-4-yl]methyl]phenyl]-N-(trifluoromethylsulfonyl)acetamide] | 100% | 100% | 100% | 100% | 90% | 80% | 90% | 90% | 60% | 90% | 90% | 60% | 90% | 90% | 100% | 80%
2 | COC1CCCCC1n1oc(=O)c(Cc2ccccc2N(C(=O)OCC(C)C)S(=O)(=O)C(F)(F)F)c1C (centres unmarked) [Compound 250] | 100% | 100% | 100% | 100% | 90% | 90% | 90% | 90% | 90% | 90% | 90% | 60% | 90% | 90% | 100% | 90%

— patent US20210309619A1, “ISOXAZOLIN-5-ONE DERIVATIVES AND HERBICIDES CONTAINING THE SAME AS ACTIVE INGREDIENTS” (HOKKO CHEMICAL INDUSTRY CO., LTD., priority 2018, published 2021)
